Assay results as given in publication PMC6515479, “An Investigation on Glucuronidation Metabolite Identification, Isozyme Contribution, and Species Differences of GL-V9 In Vitro and In Vivo” (Molecules, 2019).

Assays:
rUGT1A10 = target: T1, rUGT1A10 (Homo sapiens, UniProt Q9HAW8); assay: UGT phenotyping of GL-V9 glucuronidation, rUGT1A10; format: in vitro ADME; conditions: GL-V9 0.5, 1, 5 μM, 37 °C, 1 h
T1 construct: purchased Corning (Woburn, MA, USA)
T1 sequence (Q9HAW8 26-530): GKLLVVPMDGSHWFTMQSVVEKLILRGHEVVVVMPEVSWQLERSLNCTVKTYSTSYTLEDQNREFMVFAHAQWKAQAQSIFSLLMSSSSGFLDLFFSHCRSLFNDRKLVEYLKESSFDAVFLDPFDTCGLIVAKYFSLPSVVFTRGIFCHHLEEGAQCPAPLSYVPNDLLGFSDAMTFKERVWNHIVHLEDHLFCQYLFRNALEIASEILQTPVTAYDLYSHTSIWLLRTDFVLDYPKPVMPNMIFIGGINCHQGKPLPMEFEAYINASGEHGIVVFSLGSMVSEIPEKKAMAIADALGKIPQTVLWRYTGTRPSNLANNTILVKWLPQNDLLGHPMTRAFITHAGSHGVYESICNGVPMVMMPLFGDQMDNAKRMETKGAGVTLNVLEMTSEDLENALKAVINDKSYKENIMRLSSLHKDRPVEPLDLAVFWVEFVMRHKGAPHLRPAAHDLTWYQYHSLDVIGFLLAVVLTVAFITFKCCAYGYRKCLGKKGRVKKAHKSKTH
Method: (§1) The composition of the incubation system (200 μL) contained liver microsomes of different species (0.1 mg protein/mL), 5 mM saccharolactone (D-saccharic acid 1,4-lactone monohydrate), 10 mM MgCl2, alamethicin (50 μg/mg protein), Tris-HCl buffer (50 mM, pH 7.4) and GL-V9 (1 μM). After 5 min of preincubation at 37 °C, UDPGA (5 mM) was added to initiate the phase II reaction. Control incubation samples were performed without UDPGA or without substrates (GL-V9). The reaction was terminated by addition of ice-cold methanol (three volumes) after incubation for 1 h at 37 °C. Samples were vortexed, centrifuged at 21,500× g for 10 min and then stored at 4 °C until HPLC-UV-TripleTOF analysis. To confirm that these metabolites are conjugates resulting from glucuronidation reaction, enzymatic hydrolysis of samples was processed. β-glucuronidase (100 KU, Sigma) was added and the hydrolysis was performed overnight at 37 °C. The control samples were carried out without β-glucuronidase under the same condition.
Twelve human recombinant UGT isoforms (rUGT1A1, rUGT1A3, rUGT1A4, rUGT1A6, rUGT1A7, rUGT1A8, rUGT1A9, rUGT1A10, rUGT2B4, rUGT2B7, rUGT2B15, and rUGT2B17) were employed to identify the main UGT enzyme(s) responsible for glucuronidation of GL-V9 under mixture conditions as described in Section 4.3. […]

[1] = system: rat liver microsomes (RLMs); assay: Enzyme kinetics of GL-V9 glucuronidation in rat liver microsomes (RLMs); format: in vitro ADME; conditions: formation of 5-O-glucuronide GL-V9, protein 0.1 mg/mL, mean ± SD, n = 3
Method: as §1
(§2) Enzyme kinetics experiments were carried out in triplicate among five different species, including monkey, beagle dog, rat, mouse, and human. The reaction system and operations are as same as described in Section 4.3. The solutions of GL-V9 were selected over a range of concentrations (0.05, 0.2, 0.5, 1, 2, 5, 10, 20 μM). […]

[2] = as above; format: in vitro ADME; conditions: rat, liver microsomes, pH 7.4, formation of 5-O-glucuronide GL-V9, protein 0.1 mg/mL, mean ± SD, n = 3
Method: as §1, §2

[3] = Enzyme kinetics of GL-V9 glucuronidation in monkey liver microsomes (MLMs); format: in vitro ADME; conditions: monkey, liver microsomes, pH 7.4; formation of 5-O-glucuronide GL-V9; MLMs, protein 0.1 mg/mL; mean ± SD, n = 3
Method: as §1
(§3) Enzyme kinetics experiments were carried out in triplicate among five different species, including monkey, beagle dog, rat, mouse, and human. The reaction system and operations are as same as described in Section 4.3. The solutions of GL-V9 were selected over a range of concentrations (0.05, 0.2, 0.5, 1, 2, 5, 10, 20 μM). According to the different metabolic capacity, the protein concentration of liver microsomes of different species is different as shown in Table 1.
(§4) Rates of the glucuronidation of GL-V9 were described as amounts of glucuronides formed per minute per milligram (pmol/min/mg). The calculation model of kinetic parameters was selected by the profile of Eadie-Hofstee plots. It often includes three possibilities: (1) the Eadie-Hofstee plot was linear, the formation rates of glucuronides (V) at different substrate concentrations (C) were fit to the standard Michaelis-Menten calculation of GraphPad Prism (version 6.02, GraphPad Software Inc., Guildford, Surrey, UK); (2) the Eadie-Hofstee plot was atypical kinetic-autoactivation, the rates and concentration were fit with the allosteric sigmoidal function of GraphPad Prism; (3) the Eadie-Hofstee plot was atypical kinetic-biphasic, the rates and concentration were fit with the […] of GraphPad Prism.

[4] = system: monkey liver microsomes (MLMs); assay: as above; format: in vitro ADME
Method: as §1, §3, §4

rUGT1A9 = target: T2, rUGT1A9 (Homo sapiens, UniProt O60656); assay: Recombinant enzyme kinetics of GL-V9 glucuronidation, rUGT1A9; format: in vitro ADME; conditions: formation of 5-O-glucuronide GL-V9; rUGT1A9, protein 0.06 mg/mL, 1 h at 37 °C; mean ± SD, n = 3
T2 construct: purchased Corning (Woburn, MA, USA)
T2 sequence (O60656 26-530): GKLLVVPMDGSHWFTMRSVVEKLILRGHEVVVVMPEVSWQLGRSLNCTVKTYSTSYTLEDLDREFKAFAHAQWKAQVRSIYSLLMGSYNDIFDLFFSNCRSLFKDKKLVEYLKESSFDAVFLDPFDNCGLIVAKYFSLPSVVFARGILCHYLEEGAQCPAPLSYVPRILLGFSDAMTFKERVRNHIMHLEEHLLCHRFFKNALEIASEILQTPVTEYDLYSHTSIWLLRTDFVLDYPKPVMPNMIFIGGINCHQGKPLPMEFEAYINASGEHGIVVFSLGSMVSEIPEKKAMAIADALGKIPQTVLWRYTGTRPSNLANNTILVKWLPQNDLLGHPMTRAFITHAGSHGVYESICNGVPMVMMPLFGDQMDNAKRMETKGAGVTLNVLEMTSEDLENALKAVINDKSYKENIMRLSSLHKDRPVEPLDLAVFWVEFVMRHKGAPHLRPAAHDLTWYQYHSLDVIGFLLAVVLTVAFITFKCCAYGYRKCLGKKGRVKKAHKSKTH

[5] = cited from earlier work
[6] = GL-V9 in rat plasma, oral (gavage) GL-V9 50 mg/kg, n=6, mean ± SD
[7] = GL-V9 in rats, oral GL-V9 50 mg/kg, n=6, mean ± SD

Metabolism rate (glucuronidation) (rUGT1A10): too low to be biologically relevant | Vmax [1]: 32.72 ± 1.45 pmol/min/mg | Km at 1 h [2]: 6.54 ± 0.33 µM | Km at 1 h [3]: 11.2 ± 0.47 µM | Clint in MLMs relative to DLMs ([4]; MLMs versus DLMs): approximately 9 fold | Glucuronidation rate in MLMs relative to DLMs ([4]; MLMs versus DLMs): > 8 fold | Vmax ([4]; formation of 5-O-glucuronide GL-V9, MLMs, protein 0.1 mg/mL, mean ± SD, n = 3): 182.5 ± 4.92 pmol/min/mg | Vmax (rUGT1A9): 148.1 ± 2.56 pmol/min/mg
SMILES: COc1c(OCCCCN2CCCC2)cc(O)c2c(=O)cc(-c3ccccc3)oc12 [GL-V9]
AUC(0-t) [5, 6]: 1212.06 ± 246.47 ng·h/mL | Cmax [5, 6]: 167.33 ± 50.05 ng/mL | T1/2 [5, 6]: 3.08 ± 1.05 h | AUC(0-inf) ([5]; GL-V9 in rat plasma, oral GL-V9 50 mg/kg, n=6, mean ± SD): 1256.04 ± 271.82 ng·h/mL | Tmax ([5]; GL-V9 in rat plasma, oral GL-V9 50 mg/kg, n=6): 0.31 to 0.77 h | F ([5]; GL-V9 in rats, oral GL-V9 50 mg/kg): 8.54% | CL [5, 7]: 689.7 ± 147 mL/min/kg | MRT0-t [5, 7]: 7.70 ± 0.91 h | Vd [5, 7]: 181.06 ± 63.57 L/kg
